{"source": "paper PMC7809101", "about": "“Fetal bovine serum albumin inhibits antimicrobial peptide activity and binds drug only in complex with α1-antitrypsin” (Scientific Reports, 2021)", "key": {"[1]": {"test_system": "Escherichia coli K-12 (MG1655)", "assay": "Antimicrobial (bactericidal) activity against E. coli, effect of serum or serum proteins", "type": "cell-based", "conditions": "FBS, PBS, 37 °C (Fig. 1d)", "experimental": "The Gram-negative bacteria Escherichia coli K-12 (MG1655) was cultured and plated in/on Luria–Bertani broth/agar plate (Merck Millipore, Darmstadt, Germany). The Gram-positive Staphylococcus aureus (ATCC 6538P) was cultured and plated in tryptic soy broth/agar (BD, MD, USA). The fungus Candida albicans (ATCC 14,053) was cultured and plated in YM broth/agar (BD, MD, USA). The bacteria were grown overnight, washed, and diluted 1:2000 in phosphate buffered saline (PBS), pH 7.5 or DMEM (Life Biotech, California, USA), pH 7.4. Bacteria (ca. 1 × 10^6 colony-forming units, cfu) were mixed with antimicrobial peptides (AMP) in 100 μl PBS and incubated at 37 °C (for bacteria) and at 30 °C (for fungus). Serial dilutions of each AMP-treated bacteria in PBS/DMEM supplemented with FBS were prepared and plated for the determination of remaining viable cells (expressed as cfu). At least three independent experiments were performed for each assay to determine the average value with standard deviation. MBC was defined as the lowest AMP concentration that kills 99.9% of the original inoculum."}, "fetal bovine serum (FBS)": {"test_system": "fetal bovine serum (FBS)", "assay": "Band shift of AMPs by fetal bovine serum", "type": "binding", "experimental": "(§1) Various AMPs (4 μg each) were incubated with fetal bovine serum (FBS) components at room temperature in 10 μl PC buffer for 30 min and subjected to horizontal native 8% PAGE, pH8.0 or pH8.8, and Coomassie Blue staining."}, "[2]": {"target": "T1, protein D (albumin and α1-antitrypsin complex) (Bos taurus, UniProt P02769+P34955)", "T1 construct": "The active components were further purified by fast performance liquid chromatography (FPLC) Mono Q and S12 column chromatography from the 70% saturated fraction; from tissue; host or cells: fetal bovine serum (70% ammonium sulfate fraction, FPLC Mono Q and Superose 12)", "T1 sequence (P02769 25-607, one chain of several)": "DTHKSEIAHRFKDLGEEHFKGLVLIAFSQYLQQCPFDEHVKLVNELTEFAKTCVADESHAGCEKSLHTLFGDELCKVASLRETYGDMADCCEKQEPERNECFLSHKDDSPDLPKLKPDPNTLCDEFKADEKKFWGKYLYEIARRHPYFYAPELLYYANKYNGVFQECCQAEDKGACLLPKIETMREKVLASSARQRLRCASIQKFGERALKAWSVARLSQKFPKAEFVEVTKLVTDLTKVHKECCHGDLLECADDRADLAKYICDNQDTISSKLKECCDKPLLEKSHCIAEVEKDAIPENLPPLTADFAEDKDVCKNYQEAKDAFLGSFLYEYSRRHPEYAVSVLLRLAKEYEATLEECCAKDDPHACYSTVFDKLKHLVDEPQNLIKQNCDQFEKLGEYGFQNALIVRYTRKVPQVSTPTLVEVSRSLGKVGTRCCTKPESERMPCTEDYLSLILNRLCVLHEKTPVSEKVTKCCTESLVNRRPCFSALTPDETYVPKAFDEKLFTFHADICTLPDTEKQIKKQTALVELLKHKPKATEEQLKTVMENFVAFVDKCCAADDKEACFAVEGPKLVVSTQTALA", "assay": "Band shift of AMPs by protein D", "type": "binding, bovine"}, "[3]": {"target": "T1, protein D (albumin and α1-antitrypsin complex)", "assay": "Pulling down of protein D by immobilized biotinylated TP4-A12I,A15I", "type": "binding, bovine", "experimental": "(§2) Streptavidin-conjugated beads were incubated with 10 μg of biotinylated TP4-A12I,A15I peptides in 600 μl PC buffer for one hour on a rolling wheel. The immobilized biotinylated AMPs were further mixed with serum components in the indicated 600 μl buffer(s) at room temperature for 30 min on a rolling wheel, then washed twice with 600 μl respective buffer and subjected to SDS-PAGE and Coomassie Blue staining. Specific proteins were excised from SDS-PAGE gel and subjected to in-gel trypsin digestion and liquid chromatography-tandem mass spectrometry."}, "crude bovine serum": {"test_system": "crude bovine serum", "assay": "Pulling down of proteins from crude bovine serum by biotinylated TP4-A12I,A15I", "type": "binding", "experimental": "as §2"}, "[4]": {"target": "T1, protein D (albumin and α1-antitrypsin complex)", "assay": "Biolayer interferometry, protein D", "type": "binding, bovine", "conditions": "biotinylated TP4-A12I,A15I", "method": "(§4) The biolayer interferometry were measured by an Octet RED384 instrument (ForteBio). […] Serial dilutions of serum components in 200 μl PC buffer were used as analyte. Affinity (Kd) and kinetic parameters (kon and koff) were calculated from a global fit (1:1) of the data using the Octet RED384 software[27]."}, "[5]": {"target": "T1, protein D (albumin and α1-antitrypsin complex)", "assay": "Fluorescence emission spectrum (blue shift), protein D", "type": "binding, bovine", "conditions": "protein D 0.75 μM, PC buffer, 25 °C, 30 min; excitation 285 nm, emission 300–450 nm; reagent up to: sarkosyl 320, TP4-A12I,A15I 120, ibuprofen 24, phenytoin 20 μM", "experimental": "(§3) The mixtures were excited by 285 nm and its emission spectra were recorded between 300 and 450 nm using a temperature-controlled fluorimeter (FP8500, Jasco, Japan)[13]."}, "[6]": {"target": "T1, protein D (albumin and α1-antitrypsin complex)", "assay": "Inhibition of the binding of TP4-A12I,A15I to protein D (band shift competition)", "design": "species or system bovine", "experimental": "Reagents were added to the protein A and protein D at the indicated concentrations and excited at […] and recorded for the emission spectrum between 300 to 450 nm.\nas §1"}, "protein A/D mixture": {"test_system": "protein A/D mixture", "assay": "FPLC S12 gel filtration of proteins A/D mixture with TP4-A12I,A15I", "type": "binding, bovine", "conditions": "reduced SDS-PAGE of eluates", "source_text": "To further investigate the differential binding of AMP to protein A and protein D, the TP4-A12I,A15I and protein A/D was mixed and subjected to gel filtration chromatography (FPLC S12). There was a front shoulder on the elution profile (Fig. 3g)."}, "[7]": {"target": "T1, protein D (albumin and α1-antitrypsin complex)", "assay": "Cross-linking of AMP-protein D complex and Western blotting", "type": "binding, bovine", "conditions": "AMP/protein D cross-linked with glutaraldehyde, PC buffer, 37 °C, 30 min; reduced SDS-PAGE, Western blotting", "experimental": "Small aliquots of serum components (4 μg) in the presence/absence of AMPs (2 μg) were incubated with various concentrations of glutaraldehyde in 10 μl PC buffer at 37 °C for 30 min. […]"}, "protein A (albumin) [8]": {"target": "T2, protein A (albumin) (Bos taurus, UniProt P02769)", "T2 sequence (P02769 25-607)": "as the sequence (P02769 25-607, one chain of several) above", "conditions": "biolayer interferometry, Octet RED384; immobilized biotinylated TP4-A12I,A15I", "method": "as §4"}, "[9]": {"target": "T3, protein B (α1-antitrypsin) (Bos taurus, UniProt P34955)", "T3 sequence (P34955 25-416)": "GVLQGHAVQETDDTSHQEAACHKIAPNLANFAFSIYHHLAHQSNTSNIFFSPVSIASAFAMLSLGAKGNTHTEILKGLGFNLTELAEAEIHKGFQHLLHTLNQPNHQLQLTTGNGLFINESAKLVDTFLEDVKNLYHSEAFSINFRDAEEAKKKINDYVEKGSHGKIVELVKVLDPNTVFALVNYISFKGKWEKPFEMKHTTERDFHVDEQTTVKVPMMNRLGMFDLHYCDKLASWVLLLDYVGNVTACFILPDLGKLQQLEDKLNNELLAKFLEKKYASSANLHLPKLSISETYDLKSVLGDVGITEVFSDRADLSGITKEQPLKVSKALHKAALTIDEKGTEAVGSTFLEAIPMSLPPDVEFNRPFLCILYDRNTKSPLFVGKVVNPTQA", "conditions": "biolayer interferometry, Octet RED384; immobilized biotinylated TP4-A12I,A15I", "method": "as §4"}, "protein A (albumin) [10]": {"target": "T2, protein A (albumin)", "assay": "Pulling down of protein A by immobilized biotinylated TP4-A12I,A15I", "type": "binding, bovine", "design": "The homogeneities of collected protein A (albumin), protein B (α1-antitrypsin), protein C (serotransferrin) and protein D complex; from tissue; host or cells: fetal bovine serum (70% ammonium sulfate fraction, FPLC Mono Q)", "conditions": "biotinylated peptide on Streptavidin-conjugated beads; PC buffer, room temperature, 30 min", "experimental": "as §2"}, "protein A (albumin) [11]": {"target": "T2, protein A (albumin)", "assay": "Fluorescence emission spectrum (blue shift), protein A", "type": "binding, bovine", "design": "The homogeneities of collected protein A (albumin), protein B (α1-antitrypsin), protein C (serotransferrin) and protein D complex; from tissue; host or cells: fetal bovine serum (70% ammonium sulfate fraction, FPLC Mono Q)", "conditions": "protein A 0.75 μM, PC buffer, 25 °C, 30 min; excitation 285 nm, emission 300–450 nm; reagent up to: sarkosyl 320, TP4-A12I,A15I 120, ibuprofen 24, phenytoin 20 μM", "experimental": "as §3"}, "serum protein": {"test_system": "serum protein", "conditions": "cited from earlier work", "experimental": "Albumin is the most abundant protein in human serum (HSA, 45 mg/ml), followed in descending order by α1-antitrypsin (A1AT, 3.5 mg/ml), transferrin (2.5 mg/ml), α2-macroglobulin (2.5 mg/ml), haptoglobulin (1.8 mg/ml), low-density lipoprotein (LDL, 1.2 mg/ml), α1-acid glycoprotein (AGP, 0.8 mg/ml) and high-density lipoprotein (HDL, 0.6 mg/ml)[11]. These proteins are involved in the transportation of fatty acids, cholesterols, toxins and drugs in the blood stream."}}}
{"smiles": "CC[C@H](C)[C@H](NC(=O)[C@H](CO)NC(=O)[C@H](Cc1ccccc1)NC(=O)[C@H](CC(C)C)NC(=O)CNC(=O)CNC(=O)[C@@H](NC(=O)[C@@H](NC(=O)[C@H](Cc1c[nH]cn1)NC(=O)[C@H](Cc1c[nH]cn1)NC(=O)[C@@H](NC(=O)[C@@H](N)Cc1ccccc1)[C@@H](C)CC)[C@@H](C)CC)[C@@H](C)CC)C(=O)NCC(=O)N[C@@H](CCCCN)C(=O)N[C@H](C(=O)N[C@H](C(=O)N[C@@H](Cc1c[nH]cn1)C(=O)N[C@@H](CCCNC(=N)N)C(=O)N[C@@H](CC(C)C)C(=O)N[C@H](C(=O)N[C@@H](CCCNC(=N)N)C(=O)N[C@@H](CCCNC(=N)N)C(=O)N[C@@H](CCCNC(=N)N)C(=O)N[C@@H](CCCNC(=N)N)C(=O)N[C@@H](CCCNC(=N)N)C(=O)O)[C@@H](C)CC)[C@@H](C)CC)[C@@H](C)CC", "note": "[TP4-A12I,A15I]", "values": [{"measurement": "susceptibility of bactericidal activity to serum's inhibition (E. coli), relative to TP4", "setting": "[1]", "result": "more susceptible to serum’s inhibition"}, {"measurement": "location of TP4-A12I,A15I-binding components after ammonium sulfate fractionation (band shift)", "setting": "fetal bovine serum (FBS); 30%, 50%, 70% and 90% saturation, band shift", "result": "mainly located at the 70% ammonia sulfate saturation fraction"}, {"measurement": "FBS-mediated band shift of TP4 mutants", "setting": "fetal bovine serum (FBS); AMP 4 μg with FBS, 10 μl PC buffer, room temperature, 30 min, horizontal native 8% PAGE, pH8.0", "result": "enhanced the shift"}, {"measurement": "change of binding ability to protein D by mutation of TP4", "setting": "[2]; band shift, Supplementary Fig. 3b, TP4 mutants 4 μg, 8% horizontal native PAGE", "result": "increased the binding ability"}, {"measurement": "binding to protein D (band shift, Fig. 7b)", "setting": "[2]; protein A and D mixture (20 μg each), TP4-A12I,A15I 4 μg, 37 °C, 30 min, native PAGE, pH8.8", "result": "only protein D, but not protein A, was bound"}, {"measurement": "AMP-binding ability of protein D reduced by β-ME (band shift)", "setting": "[2]; protein D reduced by β-ME, band shift (Fig. 4e)", "result": "destroyed"}, {"measurement": "binding of protein D in the presence of SDS (dimerization inhibited)", "setting": "[3]; 2 × SDS, equivalent to 0.125% SDS (w/v), pulling down, 15% non-reducing SDS-PAGE", "result": "unable to bind"}, {"measurement": "protein retained on immobilized TP4-A12I,A15I after β-ME wash", "setting": "[3]; pulled-down protein D dissociated by β-ME (1X = 0.25%), 8% reduced SDS-PAGE", "result": "only protein B was still tightly associated"}, {"measurement": "binding of protein D constituents after dissociation by β-ME", "setting": "[3]; β-ME 0.1–0.4%, pulling down (Fig. 4f)", "result": "some protein D constituents were able to bind"}, {"measurement": "location of TP4-A12I,A15I-binding components after ammonium sulfate fractionation (pulling down)", "setting": "crude bovine serum; 30%, 50%, 70% and 90% saturation, pulling down", "result": "mainly located at the 70% ammonia sulfate saturation fraction"}, {"measurement": "proteins pulled down from crude serum (major band)", "setting": "crude bovine serum; biotinylated TP4-A12I,A15I on Streptavidin-conjugated beads, SDS-PAGE, LC/MS/MS, major band", "result": "major band consisted of albumin and α1-antitrypsin"}, {"measurement": "proteins pulled down from crude serum (minor band)", "setting": "crude bovine serum; biotinylated TP4-A12I,A15I on Streptavidin-conjugated beads, SDS-PAGE, LC/MS/MS, minor band", "result": "minor band was identified to be apolipoprotein AI (Apo-AI)"}, {"measurement": "reversibility and potency of binding of protein D", "setting": "[4]", "result": "potent and reversible binding"}, {"measurement": "blue shift of fluorescence emission spectrum, protein D", "setting": "[5]", "result": "blue shift of fluorescence emission spectrum of protein D was observed"}, {"measurement": "proposed binding site in protein D", "setting": "[6]; inferred from competition and fluorescence", "result": "probably at the drug-binding site II of albumin in the protein D complex"}, {"measurement": "co-elution with albumin in gel filtration", "setting": "protein A/D mixture", "result": "co-eluted with albumin only at the front shoulder fractions"}, {"measurement": "association with proteins after cross-linking", "setting": "[7]", "result": "associated with protein A, protein B as well as monomeric and dimeric protein D"}, {"measurement": "Kd (protein A)", "setting": "protein A (albumin) [8]", "result": "not detectable"}, {"measurement": "Kd (protein B)", "setting": "[9]", "result": "not detectable"}, {"measurement": "binding to protein A (pulling down)", "setting": "protein A (albumin) [10]", "result": "not by protein A"}, {"measurement": "blue shift of fluorescence emission spectrum, protein A", "setting": "protein A (albumin) [11]", "result": "did not cause blue shift"}]}
{"smiles": "O=C1NC(=O)C(c2ccccc2)(c2ccccc2)N1", "note": "[phenytoin]", "values": [{"measurement": "blue shift of fluorescence emission spectrum, protein D", "setting": "[5]", "result": "no blue shift was seen"}, {"measurement": "inhibition of binding of TP4-A12I,A15I to protein D", "setting": "[6]; protein A and D mixture (20 μg each) pre-incubated with drug 30 min, then TP4-A12I,A15I (4 μg) at 37 °C, 30 min, native PAGE, pH8.8", "result": "not"}, {"measurement": "bound to serum protein", "setting": "serum protein", "result": 90, "unit": "%"}, {"measurement": "blue shift of fluorescence emission spectrum, protein A", "setting": "protein A (albumin) [11]", "result": "no blue shift was seen"}]}
